{"source": "patent US10765114B2", "about": "“4-amino-6-(pyridyl and 2-substitutedphenyl)-picolinates and 6-amino-2-(pyridyl and 2-substitutedphenyl)-pyrimidine-4-carboxylates and their use as herbicides” (Dow AgroSciences LLC, priority 2013, dated 2020)", "key": {"[1]": {"system": "Key Broadleaf Weed and Crop Species", "assay": "Post-Emergent Test II (Table 5)", "assay_type": "in vivo", "conditions": "post-emergence, 336 h; for pest or weed control at 70 g/ha: application rate 70 (kg ai/ha; footnote: g ai/ha); for pest or weed control at 140 g/ha: application rate 140 (kg ai/ha; footnote: g ai/ha)", "method": "(§1) Seeds or nutlets of the desired test plant species were planted in Sun Gro Metro-Mix® 360 planting mixture, which typically has a pH of 6.0 to 6.8 and an organic matter content of about 30 percent, in plastic pots with a surface area of 64 square centimeters. When required to ensure good germination and healthy plants, a fungicide treatment and/or other chemical or physical treatment was applied. The plants were grown for 7-21 days in a greenhouse with an approximate 15 h photoperiod which was maintained at about 23-29° C. during the day and 22-28° C. during the night. Nutrients and water were added on a regular basis and supplemental lighting was provided with overhead metal halide 1000-Watt lamps as necessary. The plants were employed for testing when they reached the first or second true leaf stage.\n(§2) A weighed amount, determined by the highest rate to be tested, of each test compound was placed in a 25 mL glass vial and was dissolved in 4 mL of a 97:3 v/v mixture of acetone and DMSO to obtain concentrated stock solutions. […] The concentrated stock solutions obtained were diluted with 20 mL of an aqueous mixture containing acetone, water, isopropyl alcohol, DMSO, Atplus 411F crop oil concentrate, and Triton® X-155 surfactant in a 48.5:39:10:1.5:1.0:0.02 v/v ratio to obtain spray solutions containing the highest application rates. Additional application rates were obtained by serial dilution of 12 mL of the high rate solution into a solution containing 2 mL of 97:3 v/v mixture of acetone and DMSO and 10 mL of an aqueous mixture containing acetone, water, isopropyl alcohol, DMSO, Atplus 411F crop oil concentrate, and Triton X-155 surfactant in a 48.5:39:10:1.5:1.0:0.02 v/v ratio to obtain ½×, ¼×, ⅛× and 1/16× rates of the high rate. Compound requirements are based upon a 12 mL application volume at a rate of 187 liters per hectare (L/ha). Formulated compounds were applied to the plant material with an overhead Mandel track sprayer equipped with 8002E nozzles calibrated to deliver 187 L/ha over an application area of 0.503 square meters at a spray height of 18 inches (43 cm) above the average plant canopy height. Control plants were sprayed in the same manner with the solvent blank.\n(§3) The treated plants and control plants were placed in a greenhouse as described above and watered by subirrigation to prevent wash-off of the test compounds. After 14 days, the condition of the test plants as compared with that of the untreated plants was determined visually and scored on a scale of 0 to 100 percent where 0 corresponds to no injury and 100 corresponds to complete kill and presented as indicated in Table A. Some of the compounds tested, application rates employed, plant species tested, and results are given in Table 5."}, "[2]": {"system": "Key Grass and Sedge Weeds as well as Grass Crops", "assay": "Post-Emergent Test II (Table 6)", "assay_type": "in vivo", "conditions": "for Visual Growth Reduction (%) 14 Days After Application, CYPSS: CYPSS (CYPES: yellow nutsedge, Cyperus esculentus); for Visual Growth Reduction (%) 14 Days After Application, DIGSA: DIGSA: crabgrass (Digitaria sanguinalis); for Visual Growth Reduction (%) 14 Days After Application, ECHSS: ECHSS (ECHCG: barnyardgrass, Echinochloa crus-galli); for Visual Growth Reduction (%) 14 Days After Application, ORYSS: ORYSS (ORYSA: rice, Oryza sativa); for Visual Growth Reduction (%) 14 Days After Application, ORYSS / Visual Growth Reduction (%) 14 Days After Application, TRZSS / Visual Growth Reduction (%) 14 Days After Application, ZEAMX: crop; for Visual Growth Reduction (%) 14 Days After Application, SETFA: SETFA: giant foxtail (Setaria faberi); for Visual Growth Reduction (%) 14 Days After Application, SORVU: SORVU: johnsongrass (Sorghum vulgare); for Visual Growth Reduction (%) 14 Days After Application, TRZSS: TRZSS (TRZAS: wheat, spring, Triticum aestivum); for Visual Growth Reduction (%) 14 Days After Application, ZEAMX: ZEAMX: maize, corn (Zea mays)", "method": "as §1, §2, §3"}, "[3]": {"conditions": "Abutilon theophrasti, ABUTH: velvetleaf (Abutilon theophrasti), read-out: Visual Growth Reduction (%) 14 Days After Application ABUTH"}, "[4]": {"conditions": "Amaranthus retroflexus, AMARE: redroot pigweed (Amaranthus retroflexus), read-out: Visual Growth Reduction (%) 14 Days After Application AMARE"}, "[5]": {"conditions": "Brassica napus, BRSSS: oilseed rape, canola (Brassica napus), read-out: Visual Growth Reduction (%) 14 Days After Application BRSSS"}, "[6]": {"conditions": "Chenopodium album, CHEAL: lambsquarters (Chenopodium album), read-out: Visual Growth Reduction (%) 14 Days After Application CHEAL"}, "[7]": {"conditions": "Euphorbia heterophylla, EPHHL: wild poinsettia (Euphorbia heterophylla), read-out: Visual Growth Reduction (%) 14 Days After Application EPHHL"}, "[8]": {"conditions": "Helianthus annuus, HELAN: sunflower (Helianthus annuus), read-out: Visual Growth Reduction (%) 14 Days After Application HELAN"}, "[9]": {"conditions": "Viola tricolor, VIOTR: wild pansy (Viola tricolor), read-out: Visual Growth Reduction (%) 14 Days After Application VIOTR"}}, "note": "Read-outs that look alike come from different tables or passages of the source.", "data": [{"smiles": "COC(=O)c1nc(-c2ccc(Cl)c(F)c2Cl)c(F)c(N)c1Cl", "note": "[Compound 19, Methyl 4-amino-3-chloro-6-(2,4-dichloro-3-fluorophenyl)-5-fluoropicolinate]", "values": [{"measurement": "pest or weed control at 70 g/ha", "setting": "[1]; [3]", "value": "95 to 100", "unit": "%"}, {"measurement": "pest or weed control at 140 g/ha", "setting": "[1]; [3]", "value": "95 to 100", "unit": "%"}, {"measurement": "pest or weed control at 70 g/ha", "setting": "[1]; [4]", "value": "95 to 100", "unit": "%"}, {"measurement": "pest or weed control at 140 g/ha", "setting": "[1]; [4]", "value": "95 to 100", "unit": "%"}, {"measurement": "pest or weed control at 70 g/ha", "setting": "[1]; [5]", "value": "95 to 100", "unit": "%"}, {"measurement": "pest or weed control at 140 g/ha", "setting": "[1]; [5]", "value": "95 to 100", "unit": "%"}, {"measurement": "pest or weed control at 70 g/ha", "setting": "[1]; [6]", "value": "85 to 94", "unit": "%"}, {"measurement": "pest or weed control at 140 g/ha", "setting": "[1]; [6]", "value": "95 to 100", "unit": "%"}, {"measurement": "pest or weed control at 70 g/ha", "setting": "[1]; [7]", "value": "85 to 94", "unit": "%"}, {"measurement": "pest or weed control at 140 g/ha", "setting": "[1]; [7]", "value": "95 to 100", "unit": "%"}, {"measurement": "pest or weed control at 70 g/ha", "setting": "[1]; [8]", "value": "95 to 100", "unit": "%"}, {"measurement": "pest or weed control at 140 g/ha", "setting": "[1]; [8]", "value": "95 to 100", "unit": "%"}, {"measurement": "pest or weed control at 70 g/ha", "setting": "[1]; [9]", "value": "85 to 94", "unit": "%"}, {"measurement": "pest or weed control at 140 g/ha", "setting": "[1]; [9]", "value": "95 to 100", "unit": "%"}, {"measurement": "Visual Growth Reduction (%) 14 Days After Application, CYPSS", "setting": "[2]; 70 g ai/ha", "value": "A (95-100)"}, {"measurement": "Visual Growth Reduction (%) 14 Days After Application, CYPSS", "setting": "[2]; 140 g ai/ha", "value": "A (95-100)"}, {"measurement": "Visual Growth Reduction (%) 14 Days After Application, DIGSA", "setting": "[2]; 70 g ai/ha", "value": "E (45-59)"}, {"measurement": "Visual Growth Reduction (%) 14 Days After Application, DIGSA", "setting": "[2]; 140 g ai/ha", "value": "C (75-84)"}, {"measurement": "Visual Growth Reduction (%) 14 Days After Application, ECHSS", "setting": "[2]; 70 g ai/ha", "value": "C (75-84)"}, {"measurement": "Visual Growth Reduction (%) 14 Days After Application, ECHSS", "setting": "[2]; 140 g ai/ha", "value": "A (95-100)"}, {"measurement": "Visual Growth Reduction (%) 14 Days After Application, ORYSS", "setting": "[2]; 70 g ai/ha", "value": "F (30-44)"}, {"measurement": "Visual Growth Reduction (%) 14 Days After Application, ORYSS", "setting": "[2]; 140 g ai/ha", "value": "E (45-59)"}, {"measurement": "Visual Growth Reduction (%) 14 Days After Application, SETFA", "setting": "[2]; 70 g ai/ha", "value": "C (75-84)"}, {"measurement": "Visual Growth Reduction (%) 14 Days After Application, SETFA", "setting": "[2]; 140 g ai/ha", "value": "B (85-94)"}, {"measurement": "Visual Growth Reduction (%) 14 Days After Application, SORVU", "setting": "[2]; 70 g ai/ha", "value": "B (85-94)"}, {"measurement": "Visual Growth Reduction (%) 14 Days After Application, SORVU", "setting": "[2]; 140 g ai/ha", "value": "B (85-94)"}, {"measurement": "Visual Growth Reduction (%) 14 Days After Application, TRZSS", "setting": "[2]; 70 g ai/ha", "value": "C (75-84)"}, {"measurement": "Visual Growth Reduction (%) 14 Days After Application, TRZSS", "setting": "[2]; 140 g ai/ha", "value": "C (75-84)"}, {"measurement": "Visual Growth Reduction (%) 14 Days After Application, ZEAMX", "setting": "[2]; 70 g ai/ha", "value": "B (85-94)"}, {"measurement": "Visual Growth Reduction (%) 14 Days After Application, ZEAMX", "setting": "[2]; 140 g ai/ha", "value": "A (95-100)"}]}]}
